The test system of the first data set is A549 cells. The data set can be described thus: Growth inhibition of siRNA-transfected A549 cells, SYBR Green I DNA content. Type of data set: cell-based, human. Particulars: 10 nM siRNA; DNA content 96 hours after transfection. The protocol: A549 cells (human lung cancer cell line; ATCC No. CCL-185), SK-MeI-5 cells (human melanoma cell line; ATCC No. HTB-70), MCF-7 cells (human adenocarcinoma cell line; ATCC No. HTB-22), HCT-116 cells (colorectal carcinoma; ATCC CCL-247) and HCT-116 p53 null cells (derived from ATCC No. CCL-247; Bunz et al., Science 282:1497-1501, 1998) were cultured in RPMI 1640 medium with 10% v/v heat-inactivated fetal calf serum (FCS). Cells were seeded at a density of 5×10^4 cells/cm^2 in multi-well tissue culture plates. Sequences of Stealth™ siRNA duplexes (Invitrogen) targeting human ribonucleotide reductase subunit 1 (SEQ ID NO: 22) and subunit 2 (SEQ ID NO; 38) are given in SEQ ID NO: 4830-4832 (DNA), and SEQ ID NO: 5136-5138 (RNA) for RRM1, and SEQ ID NO: 5306-5308 (DNA), and SEQ ID NO: 5303-5305 (RNA) for RRM2. siRNAs were transfected at different concentrations into cells using Lipofectamine™ RNAiMAX transfection reagent (Invitrogen). Non-specific siRNA (SEQ ID NO: 4804 and 4805 (DNA), and SEQ ID NO: 5301 and 5302 (RNA)) were used as controls. The cellular DNA content was measured using a SYBR Green I-based fluorometric assay at 24, 48, 72 and 96 hours after transfection (120 hours for the MCF-7 cells), as follows. At the indicated time points following reverse transfection, cells were harvested and frozen at −80° C. overnight. Cells were thawed and cell lysis buffer (phosphate-buffered saline (PBS) containing 1% Triton X-100, pH 7) and SYBR Green I (1:10^5 V/V; Invitrogen) was added to the wells and incubated overnight in the dark at 4° C.
The following day, cell lysates were mixed thoroughly, and DNA fluorescence was measured with a Wallac Victor^2 plate reader (Turku, Finland) set at an excitation frequency of 485 nm and measuring emission at 535 nm.
To determine the duration of the knock-down effect of RRM1-targeting siRNA, A549 cells were reverse transfected with 1 or 10 nM RRM1-3 (SEQ ID NO: 4832 (DNA, and SEQ ID NO: 5138 (RNA)) or control siRNA (SEQ ID NO: 4804 (DNA), and SEQ ID NO: 5301 (RNA)), and growth followed over time. Growth inhibition was measured daily as described above for up to ten days. RRM1-3-mediated RRM1 silencing inhibited growth for at least 10 days post-transfection at both 1 and 10 nM (FIG. 11).
siRNA-mediated inhibition of cancer cell growth was determined in A549 cells as follows. A549 cells (human lung cancer cell line; ATCC No. CCL-185) were cultured in RPMI 1640 medium with 10% v/v heat-inactivated fetal calf serum. Cells were seeded at a density of 5×10^3 cells/cm^2 in multi-well tissue culture plates. Stealth™ siRNA duplexes (Invitrogen) targeting genes involved in cancer energy and metabolism pathways and listed in Table 9, were transfected at 10 nM into cells using Lipofectamine™ RNAiMAX transfection reagent (Invitrogen). Non-specific siRNA (SEQ ID NO: 4804 and 4805 (DNA), and SEQ ID NO: 5301 and 5302 (RNA)) were used as controls. The cellular DNA content was measured using a SYBR Green I-based fluorometric assay at 96 hours after transfection. The cells were harvested and frozen at −80° C. overnight. Cells were thawed and cell lysis buffer (phosphate-buffered saline (PBS) containing 1% Triton X-100, pH 7) and SYBR Green I (1:10^5 v/v; Invitrogen) was added to the wells and incubated overnight in the dark at 4° C. The following day, cell lysates were mixed thoroughly, and DNA fluorescence was measured with a Wallac Victor^2 plate reader (Turku, Finland) set at an excitation frequency of 485 nm and measuring emission at 535 nm.
Three different siRNAs were tested for each target gene. The average fluorescence units from three replicate wells, representing the amount of DNA per well, were used to determine the effect on growth inhibition. The results are given in Table 10 (energy and metabolism gene targets) and Table 11 (transporter gene targets).
siRNA-mediated RNAi was also determined on a panel of different cell lines. […]
Regarding “SEQ ID NO: 4877: siRNA targeting CTPS (chain 1 AGCACCTGCATACAACCAGATCTGG; chain 2 AGCACCUGCAUACAACCAGAUCUGG; Both strands are one antisense strand in DNA/RNA notation, chemistry not given here, further chemistry not given here; one strand in two spellings)”, the “Growth Inhibition in A549 cells” value is given as “+ (inhibits by at least 50%)”.

As for “SEQ ID NO: 4997: siRNA targeting DGUOK (chain 1 GCCAGGAAGCCAGTACAGATCTTTG; chain 2 GCCAGGAAGCCAGUACAGAUCUUUG; chemistry not given here; one strand in two spellings)”, the “Growth Inhibition in A549 cells” value was “+ (inhibits by at least 50%)”. Turning to “SEQ ID NO: 4828: siRNA targeting CAD (chain 1 TGTCTGAGAAGCCAAGACACTTGGC; chain 2 UGUCUGAGAAGCCAAGACACUUGGC; chemistry not given here; one strand in two spellings)”, the “Growth Inhibition in A549 cells” value is given as “− (no growth inhibition with any siRNA)”. With “SEQ ID NO: 4824: siRNA targeting CPS1 (chain 1 ATATGATGCAGCCACCACATGCCTC; chain 2 AUAUGAUGCAGCCACCACAUGCCUC; chemistry not given here; one strand in two spellings)”, the “Growth Inhibition in A549 cells” value is given as “++ (inhibits by at least 75%)”. For the substance “SEQ ID NO: 4874: siRNA targeting RRM2B (chain 1 TATCTGTGGTTTCTGCCATAACTGC; chain 2 UAUCUGUGGUUUCUGCCAUAACUGC; Both strands are one antisense strand in DNA/RNA notation, chemistry not given here, further chemistry not given here; one strand in two spellings)”, the “Growth Inhibition in A549 cells” value was “− (no growth inhibition with any siRNA)”. The same measure, in the same setting: as for “SEQ ID NO: 4862: siRNA targeting SLC25A5 (ANT2) (chain 1 AGAACATTGGACCATGCACCCTTGA; chain 2 AGAACAUUGGACCAUGCACCCUUGA; Both strands are one antisense strand in DNA/RNA notation, chemistry not given here, further chemistry not given here; one strand in two spellings)”, the entry is “− (no growth inhibition with any siRNA)”. Consider “SEQ ID NO: 4854: siRNA targeting FASN (chain 1 ATGAAGCTCACCCAGTTATCCTTCC; chain 2 AUGAAGCUCACCCAGUUAUCCUUCC; Both strands are one antisense strand in DNA/RNA notation, chemistry not given here, further chemistry not given here; one strand in two spellings)”, for which the “Growth Inhibition in A549 cells” value is “− (no growth inhibition with any siRNA)”. On the same count and under the same terms, as for “SEQ ID NO: 4808: siRNA targeting ARNT (HIF-1β) (chain 1 TCTCATGGAAGACTGCTGACCTTCC; chain 2 UCUCAUGGAAGACUGCUGACCUUCC; chemistry not given here; one strand in two spellings)”, the entry is “− (no growth inhibition with any siRNA)”; as for “SEQ ID NO: 4853: siRNA targeting ATP5B (chain 1 TATACCAGCGCTACCTTAGAGGTGG; chain 2 UAUACCAGCGCUACCUUAGAGGUGG; Both strands are one antisense strand in DNA/RNA notation, chemistry not given here, further chemistry not given here; one strand in two spellings)”, “+ (inhibits by at least 50%)”. On the same count and under the same terms, as for “SEQ ID NO: 4841: siRNA targeting AK1 (chain 1 AAACTCTTCTCCTTGCTGCACCTCC; chain 2 AAACUCUUCUCCUUGCUGCACCUCC; chemistry not given here; one strand in two spellings)”, the entry is “− (no growth inhibition with any siRNA)”; as for “SEQ ID NO: 4998: siRNA targeting UMPS (chain 1 GAGTTGTGAAAGGCCTGCAAGAAGT; chain 2 GAGUUGUGAAAGGCCUGCAAGAAGU; chemistry not given here; one strand in two spellings)”, “− (no growth inhibition with any siRNA)”; as for “SEQ ID NO: 4873: siRNA targeting RRM2B (chain 1 TTTACTAAGTATTGGAACATCAGGC; chain 2 UUUACUAAGUAUUGGAACAUCAGGC; Both strands are one antisense strand in DNA/RNA notation, chemistry not given here, further chemistry not given here; one strand in two spellings)”, “− (no growth inhibition with any siRNA)”. On the same count and under the same terms, for “SEQ ID NO: 4993: siRNA targeting TK2 (chain 1 GGAAGACGACATGCCTGGAATTCTT; chain 2 GGAAGACGACAUGCCUGGAAUUCUU; chemistry not given here; one strand in two spellings)” the value was “− (no growth inhibition with any siRNA)”; for “SEQ ID NO: 4845: siRNA targeting FLAD1 (chain 1 TTTGAGTGGAACTGAACAGCTGGGT; chain 2 UUUGAGUGGAACUGAACAGCUGGGU; chemistry not given here; one strand in two spellings)”, “+ (inhibits by at least 50%)”. As to “SEQ ID NO: 4847: siRNA targeting FLAD1 (chain 1 TGCAATGGTGGCTACCTCATCAGGT; chain 2 UGCAAUGGUGGCUACCUCAUCAGGU; chemistry not given here; one strand in two spellings)”, the “Growth Inhibition in A549 cells” value is recorded as “− (no growth inhibition with any siRNA)”.

Still in this data set, the particulars now being: 10 nM siRNA; up to 120 hours post-transfection (FIG. 8).
Consider “SEQ ID NO: 4873: siRNA targeting RRM2B (chain 1 TTTACTAAGTATTGGAACATCAGGC; chain 2 UUUACUAAGUAUUGGAACAUCAGGC; Both strands are one antisense strand in DNA/RNA notation, chemistry not given here, further chemistry not given here; one strand in two spellings)”, for which the “growth inhibition, A549” value is “No inhibition of growth”.

The same data set, now with this note: A549 cells, 10 nM siRNA, DNA content 96 hours after transfection, transporter gene targets.
Turning to “SEQ ID NO: 4980: siRNA targeting ABCB1 (MDR1) (chain 1 TTCACCAAATGTGACATTTCCTTCC; chain 2 UUCACCAAAUGUGACAUUUCCUUCC; chemistry not given here; one strand in two spellings)”, the “Growth Inhibition in A549 cells by 10 nM siRNA” value was “− (no growth inhibition)”. Same read-out and setting: for “SEQ ID NO: 4979: siRNA targeting ABCB1 (MDR1) (chain 1 TAATTATTCCTGTCCCAAGATTTGC; chain 2 UAAUUAUUCCUGUCCCAAGAUUUGC; chemistry not given here; one strand in two spellings)” the value was “− (no growth inhibition)”; for “SEQ ID NO: 4941: siRNA targeting ATP2B2 (PMCA2) (chain 1 ATCTGTGTCTGGATCCGATTCAGGC; chain 2 AUCUGUGUCUGGAUCCGAUUCAGGC; chemistry not given here; one strand in two spellings)”, “+ (inhibits by at least 50%)”.

Take “SEQ ID NO: 4949: siRNA targeting ATP6V1A (chain 1 TATAAATAGAGGCTTCTCTAGCAGC; chain 2 UAUAAAUAGAGGCUUCUCUAGCAGC; chemistry not given here; one strand in two spellings)”: the “Growth Inhibition in A549 cells by 10 nM siRNA” value is reported as “− (no growth inhibition)”.

Values taken from patent US20080145313A1, “Compositions and Methods for the Treatment and Prevention of Neoplastic Disorders” (Genesis Research & Development Corporation Limited, priority 2006, published 2008).
